Key:
[1] = test system: E. faecium ATCC 700221; assay: Neutropenic thigh infection mouse model with VanA E. faecium; format: in vivo; settings: compound 17 4 doses at 100 mg/kg i.p., linezolid 4 doses at 50 mg/kg i.p.
[2] = test system: M. tuberculosis H37Ra; format: cell-based, Mycobacterium tuberculosis
[3] = test system: M. bovis BCG Pasteur ATCC 35734; format: cell-based

Compound: CC(=O)NC[C@H]1CN(c2ccc(N3CCOCC3)c(F)c2)C(=O)O1 [linezolid]
- weight loss compared to untreated control mice [1]: reduced weight loss
- survival (endpoint: 15% of starting weight lost) ([1]; neutropenic mice, Kaplan–Meier, *P < 0.05 Gehan–Breslow–Wilcoxon test): significant survival benefit

Compound: complestatin
- MIC, M. tuberculosis H37Ra [2]: >64 µg/mL
- MIC, M. bovis BCG Pasteur ATCC 35734 [3]: 64 µg/mL

Source: article PMC10350919 (Journal of Medicinal Chemistry, 2023)
